Data on four compounds can be found in ChEMBL document CHEMBL1153834, “Orally administered combined regimens for treatment of Mycobacterium ulcerans infection in mice” (2007).

≈ marks a conversion by molar mass, not a printed value. Calls of active or inactive are those of the source. The rule behind the calls is not given here.

In assay [1] the test system is Mycobacterium ulcerans. Briefly: Antimycobacterial activity against Mycobacterium ulcerans isolate CU001. It counts as functional.
For assay [2], the system named is Mycobacterium ulcerans. Briefly: Antimycobacterial activity against Mycobacterium ulcerans isolate CU001 infected in BALB/c mouse left hind foot-pad assessed as bacterial load per culture-positive foot-pad at 100 mg/kg, po administered for 5 days per week measured after 4 weeks. It counts as functional.
Assay [3] concerns Mycobacterium ulcerans. Briefly: Antimycobacterial activity against Mycobacterium ulcerans isolate CU001 infected in BALB/c mouse left hind foot-pad assessed as bacterial load at 100 mg/kg, po administered for 5 days per week measured after 4 weeks. It counts as functional.
For assay [4], the system named is Mycobacterium ulcerans. Briefly: Antimycobacterial activity against Mycobacterium ulcerans isolate CU001 infected in BALB/c mouse left hind foot-pad assessed as incidence of bacterial infection at 100 mg/kg, po administered for 5 days per week measured after 8 weeks. Format: functional, organism-based. Also noted: dose 100 mg/kg.
For assay [5], the system named is Mycobacterium ulcerans. Briefly: Antimycobacterial activity against Mycobacterium ulcerans isolate CU001 infected in BALB/c mouse left hind foot-pad assessed as bacterial load at 100 mg/kg, po administered for 5 days per week measured after 8 weeks. Format: functional.
Assay [6] relates to Mycobacterium ulcerans. Briefly: Antimycobacterial activity against Mycobacterium ulcerans isolate CU001 infected in BALB/c mouse left hind foot-pad assessed as bacterial load per culture-positive foot-pad at 10 mg/kg, po administered for 5 days per week measured after 8 weeks. It counts as functional.
Assay [7] deals with Mycobacterium ulcerans. Briefly: Antimycobacterial activity against Mycobacterium ulcerans isolate CU001 infected in BALB/c mouse left hind foot-pad assessed as bacterial load per culture-positive foot-pad at 10 mg/kg, po administered for 5 days per week measured after 4 weeks. Format: functional.
In assay [8] the test system is Mycobacterium ulcerans. Briefly: Antimycobacterial activity against Mycobacterium ulcerans isolate CU001 infected in BALB/c mouse left hind foot-pad assessed as bacterial load at 10 mg/kg, po administered for 5 days per week measured after 4 weeks. Format: functional.
The subject of assay [9] is Mycobacterium ulcerans. Briefly: Antimycobacterial activity against Mycobacterium ulcerans isolate CU001 infected in BALB/c mouse left hind foot-pad assessed as incidence of bacterial infection at 10 mg/kg, po administered for 5 days per week measured after 8 weeks. Format: functional, organism-based. Also noted: dose 10 mg/kg.
Assay [10] deals with Mycobacterium ulcerans. Briefly: Antimycobacterial activity against Mycobacterium ulcerans isolate CU001 infected in BALB/c mouse left hind foot-pad assessed as bacterial load at 10 mg/kg, po administered for 5 days per week measured after 8 weeks. It counts as functional, organism-based. Further details: dose 10 mg/kg.

Take `CC[C@H]1OC(=O)[C@H](C)[C@@H](O[C@H]2C[C@@](C)(OC)[C@@H](O)[C@H](C)O2)[C@H](C)[C@@H](O[C@@H]2O[C@H](C)C[C@H](N(C)C)[C@H]2O)[C@](C)(OC)C[C@@H](C)C(=O)[C@H](C)[C@@H](O)[C@]1(C)O` [CLARITHROMYCIN]: the MIC with Mycobacterium ulcerans [1] came to 0.5 µg/mL (≈ 0.668 µM). Besides, the log10cfu in the assay with Mycobacterium ulcerans [2] turned out to be 3.43; in the assay on Mycobacterium ulcerans [3], 2.53; with Mycobacterium ulcerans [5] it was 1.25. Moreover, the outcome with Mycobacterium ulcerans [4] was Active.

Take `COc1c(N2C[C@@H]3CCCN[C@@H]3C2)c(F)cc2c(=O)c(C(=O)O)cn(C3CC3)c12` [MOXIFLOXACIN]: the minimal inhibitory concentration (MIC) in the assay with Mycobacterium ulcerans [1] stood at 0.25 µg/mL (≈ 0.623 µM). For the same compound, the log10cfu is 3.23 with Mycobacterium ulcerans [2], 1.72 in the assay on Mycobacterium ulcerans [6], 2.99 in the assay on Mycobacterium ulcerans [3] and 1.25 with Mycobacterium ulcerans [5].

`CO[C@H]1/C=C/O[C@@]2(C)Oc3c(C)c(O)c4c(O)c(c(/C=N/N5CCN(C)CC5)c(O)c4c3C2=O)NC(=O)/C(C)=C\C=C\[C@H](C)[C@H](O)[C@@H](C)[C@@H](O)[C@@H](C)[C@H](OC(C)=O)[C@@H]1C` [RIFAMPIN] returned an MIC in the assay on Mycobacterium ulcerans [1] of 2 µg/mL (≈ 2.43 µM). For the same compound, the log10cfu in the assay on Mycobacterium ulcerans [7] amounted to 1.52; with Mycobacterium ulcerans [8], 0.46. In addition, the result in the assay on Mycobacterium ulcerans [9] and with Mycobacterium ulcerans [10] was Active.

Turning to `CN[C@@H]1[C@H](O[C@H]2[C@H](O[C@H]3[C@H](O)[C@@H](O)[C@H](N=C(N)N)[C@@H](O)[C@@H]3N=C(N)N)O[C@@H](C)[C@]2(O)C=O)O[C@@H](CO)[C@H](O)[C@H]1O` [STREPTOMYCIN], in the assay on Mycobacterium ulcerans [1], the minimal inhibitory concentration (MIC) was 0.5 µg/mL (≈ 0.86 µM).
